Measured values from publication PMC4686643 (Frontiers in Molecular Neuroscience, 2015).
Read-outs that look alike come from different tables or passages of the source. Peptide text beside a SMILES is read from it. * marks the point of attachment. Cbz = O=C(OCc1ccccc1)*

What was measured:
[1] = system: GlyR α1 wt protein in HEK293 cells; assay: Protein degradation analysis on whole cell lysates (Western blot) with proteasome or lysosome inhibitors; type: cell-based, human
Experimental: (§1) HEK293 cells transiently expressing GlyR α1 wt or α1 variants were incubated under standard growth conditions with proteasome or lysosome inhibitors for specific time periods (all inhibitors have been obtained from Sigma-Aldrich, St. Louis, MO, USA). Cells were incubated with 1 μM of MG132 for 1, 2, and 4 h. The lysosome inhibitor leupeptin (200 μg/mL) was incubated for 6, 12, and 24 h together with the transfected cells.
(§2) At each time point, media was aspirated and cells were washed twice with PBS followed by incubation with CytoBuster Protein Extraction Reagent (Merck Millipore, Darmstadt, Germany) supplemented with protease inhibitor for 5 min at room temperature. The resulting cell suspension was centrifuged for 5 min at 16.000 g and 4°C resulting in a supernatant containing solubilized proteins.
(§3) Western Blot Analysis—For SDS-PAGE, 11% polyacrylamide gels were freshly prepared, followed by Western blot on nitrocellulose membranes (GE Healthcare, Freiburg, Germany). Membranes were blocked for 1 h with 5% BSA in TBS-T (TBS with 1% Tween 20). Primary antibodies were incubated overnight at 4°C. GlyR α1 wt and GlyR mutants were detected with the pan-α antibody MAb4a (Synaptic Systems, Göttingen, Germany), recognizing an epitope in the N-terminus of the GlyRs (residues 96–105). In biotinylation experiments, cadherin was chosen as loading control detected by the pan-Cadherin antibody (Cell Signaling Technology, Danvers, MA, USA). For lysate analysis, GAPDH served as a loading control (Calbiochem, Darmstadt, Germany). Signals were detected using the ECLplus system (GE Healthcare, Freiburg, Germany).

[2] = system: GlyR α1 T162M protein in HEK293 cells; assay: as above; type: cell-based, human; conditions: for GlyR protein level after lysosomal block: leupeptin 200 μg/mL
Experimental: as §1, §2, §3

[3] = target: GlyR α1 T162N (Homo sapiens, UniProt P23415, T190N); conditions: 100 μM glycine
Experimental: (§4) HEK293 cells were transiently transfected using a modified calcium-phosphate precipitation method, were a mixture of plasmid DNA, CaCl2, and 2x HBS buffer (50 mM HEPES, 12 mM glucose, 10 mM KCl, 280 mM NaCl, 1.5 mM Na2HPO4) was applied onto the cells.
(§5) Maximal current amplifications (Imax) were measured by the patch clamp technique in a whole-cell configuration mode. Current signals were amplified with an EPC-9 amplifier (HEKA, Lambrecht, Germany). […] The extracellular buffer consisted of 137 mM NaCl, 5.4 mM KCl, 1.8 mM CaCl2, 1 mM MgCl2, […], 10 mM HEPES, with a pH adjusted to 7.4 with NaOH. The internal buffer was 120 mM CsCl, 20 mM N(Et)4Cl, 1 mM CaCl2, 3 mM MgCl2, 11 mM EGTA, 10 mM HEPES with a pH adjusted to 7.4 with CsOH. Recording pipettes were fabricated from borosilicate capillaries with an open resistance of about 4 MΩ. Current responses were measured at a holding potential of −60 mV. All experiments were carried out at room temperature. Error bars refer to S.E.M. values.

[4] = target: GlyR α1 T162A (Homo sapiens, UniProt P23415, T190A); conditions: 100 μM glycine
Experimental: as §4, §5

[5] = target: GlyR α1 T162D (Homo sapiens, UniProt P23415, T190D)
Experimental: as §4, §5

[6] = target: GlyR α1 G160R (Homo sapiens, UniProt P23415, G188R); conditions: 100 μM glycine
Experimental: as §4, §5

[7] = target: GlyR α1 wt (Homo sapiens, UniProt P23415); conditions: 100 μM glycine
Experimental: as §4, §5

[8] = system: GlyR α1 T162 mutants; conditions: glycine 3–10 mM
Experimental: as §4, §5

[9] = target: GlyR α1 G160S (Homo sapiens, UniProt P23415, G188S); conditions: 100 μM glycine
Experimental: as §4, §5

[10] = target: GlyR α1 G160A (Homo sapiens, UniProt P23415, G188A); conditions: 100 μM glycine
Experimental: as §4, §5

[11] = target: GlyR α1 T162P (Homo sapiens, UniProt P23415, T190P); conditions: 100 μM glycine
Experimental: as §4, §5

[12] = target: GlyR α1 T162M (Homo sapiens, UniProt P23415, T190M); conditions: 100 μM glycine
Experimental: as §4, §5

Chain of GlyR α1 T162N (P23415 29-457 T190N): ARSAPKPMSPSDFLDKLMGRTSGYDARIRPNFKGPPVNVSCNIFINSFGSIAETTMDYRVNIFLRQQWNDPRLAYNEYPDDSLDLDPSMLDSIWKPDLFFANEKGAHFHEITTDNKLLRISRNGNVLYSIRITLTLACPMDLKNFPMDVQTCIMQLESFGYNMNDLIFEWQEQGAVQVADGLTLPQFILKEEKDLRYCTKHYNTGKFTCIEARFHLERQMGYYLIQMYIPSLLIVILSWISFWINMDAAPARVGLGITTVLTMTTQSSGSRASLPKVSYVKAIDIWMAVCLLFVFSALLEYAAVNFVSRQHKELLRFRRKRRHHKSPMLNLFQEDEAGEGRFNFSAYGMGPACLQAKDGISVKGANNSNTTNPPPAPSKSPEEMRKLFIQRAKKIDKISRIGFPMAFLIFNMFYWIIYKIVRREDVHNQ
Chain of GlyR α1 T162D (P23415 29-457 T190D): as the sequence (P23415 29-457 T190N) above, with N162D counted along it
Chain of GlyR α1 G160A (P23415 29-457 G188A): as the sequence (P23415 29-457 T190N) above, with G160A, N162T counted along it
Chain of GlyR α1 wt (P23415 29-457): as the sequence (P23415 29-457 T190N) above, with N162T counted along it
Chain of GlyR α1 T162M (P23415 29-457 T190M): as the sequence (P23415 29-457 T190N) above, with N162M counted along it
Chain of GlyR α1 G160R (P23415 29-457 G188R): as the sequence (P23415 29-457 T190N) above, with G160R, N162T counted along it
Chain of GlyR α1 G160S (P23415 29-457 G188S): as the sequence (P23415 29-457 T190N) above, with G160S, N162T counted along it
Chain of GlyR α1 T162A (P23415 29-457 T190A): as the sequence (P23415 29-457 T190N) above, with N162A counted along it
Chain of GlyR α1 T162P (P23415 29-457 T190P): as the sequence (P23415 29-457 T190N) above, with N162P counted along it

Structure (SMILES): CC(C)C[C@@H](C=O)NC(=O)[C@H](CC(C)C)NC(=O)[C@H](CC(C)C)NC(=O)OCc1ccccc1 [MG132] (Cbz-Leu-Leu-Leu-aldehyde)
- GlyR protein level after proteasomal block ([1]; 1 μM MG132, 2 h): not affected
- GlyR protein level after proteasomal block ([2]; 1 μM MG132, 2 h, compared to wt): significant increase

Structure (SMILES): CC(=O)N[C@@H](CC(C)C)C(=O)N[C@@H](CC(C)C)C(=O)N[C@H](C=O)CCCNC(=N)N [leupeptin]
- GlyR protein level after lysosomal block ([1]; leupeptin 200 μg/mL, 12 h): accumulations
- GlyR protein level after lysosomal block ([2]; 6 h): did not show any differences
- GlyR protein level after lysosomal block ([2]; 12 h, in contrast to wt): reduced protein levels

Structure (SMILES): NCC(=O)O [glycine]
- Irel current, % of the wt current ([3]; T162N): 13 ± 3%
- reduction of the wt response ([3]; T162N): 85%
- Imax ± SEM ([3]; α1 T162N): 447 ± 96 pA
- Irel current, % of maximum current of wt ([4]; T162A): 4 ± 1%
- Imax ± SEM ([4]; α1 T162A): 148 ± 45 pA
- Irel current, % of wt currents ([5]; T162D, 100 μM glycine, measured in two out of five cells): less than 1%
- whole cell maximal currents compared to wt ([5]; T162D, saturating glycine 10 mM): indistinguishable from GlyR α1 wt
- Imax ± SEM ([5]; α1 T162D, 100 μM glycine): 10 ± 6 pA
- Irel current, % of the wt current ([6]; G160R): 69 ± 10%
- Imax ± SEM ([6]; α1 G160R): 1089 ± 167 pA
- Imax ± SEM ([7]; wt control of the G160 series): 1571 ± 260 pA
- Imax ± SEM ([7]; wt control of the T162 series): 2916 ± 371 pA
- functionality compared to wt receptors [8]: indistinguishable from wt receptors
- Irel current, % of the wt current ([9]; G160S): 68 ± 22%
- Imax ± SEM ([9]; α1 G160S): 1061 ± 359 pA
- Irel current, % of the wt current ([10]; G160A): 92 ± 12%
- Imax ± SEM ([10]; α1 G160A): 1453 ± 197 pA
- Irel current, % of the wt current ([11]; T162P): 29 ± 10%
- Imax ± SEM ([11]; α1 T162P): 832 ± 300 pA
- Irel current, % of I100μM compared to wt ([12]; T162M): 11 ± 5%
- Imax ± SEM ([12]; α1 T162M): 309 ± 154 pA
